Experiments:
Leishmania donovani [1] = test: Antileishmanial activity against Leishmania donovani MHOM/IN/AG/83 promastigotes after 48 hrs by MTT assay; format: functional, organism-based; settings: MHOM/IN/AG/83, 48 h
Leishmania donovani [2] = test: Antileishmanial activity against Leishmania donovani MHOM/IN/AG/83 amastigotes infected in BALB/c mouse peritoneal macrophages after 42 hrs by Giemsa staining-based microscopic analysis; format: functional, organism-based; settings: MHOM/IN/AG/83, 42 h
RAW264.7 = test: Cytotoxicity against mouse RAW264.7 cells after 48 hrs by MTT assay; format: cell-based; settings: RAW264.7, 48 h
Peritoneal macrophage [3] = test: Cytotoxicity against BALB/c mouse peritoneal macrophages after 48 hrs by MTT assay; format: cell-based
[4] = Therapeutic index, ratio of IC50 for mouse RAW264.7 cells to IC50 for Leishmania donovani MHOM/IN/AG/83 promastigotes; format: toxicity; settings: read-out: Ratio IC50
[5] = Therapeutic index, ratio of EC50 for BALB/c mouse peritoneal macrophages to EC50 for Leishmania donovani MHOM/IN/AG/83 amastigotes; format: toxicity; settings: read-out: Ratio EC50
Peritoneal macrophage [6] = test: Induction of NO generation in Leishmania donovani MHOM/IN/AG/83 infected BALB/c mouse peritoneal macrophages assessed as nitrite levels after 48 hrs by Griess assay relative to untreated control; format: functional; further: test concentration or dose not given here

SMILES | IC50 (Leishmania donovani [1]) | EC50 (Leishmania donovani [2]) | IC50 (RAW264.7) | EC50 (Peritoneal macrophage [3]) | selectivity ratio [4] | selectivity ratio [5] | Activity (Peritoneal macrophage [6]) | Activity (Peritoneal macrophage [6]; record 2)
C=CCc1ccc(OCCCCC)c(OC)c1 | 90.8 µM | 83.4 µM | 178 µM | 164 µM | 1.96 | 1.97 | Dose-dependent effect | 12.95 µM
C=CCc1ccc(OC(=O)CCCCC)c(OC)c1 | 162 µM | 101 µM | 517 µM | 477 µM | 3.21 | 4.76 | Dose-dependent effect | 18.29 µM
C=CCc1ccc(OC(=O)Cc2ccccc2)c(OC)c1 | 33.4 µM | 9.28 µM | 391 µM | 385 µM | 11.8 | 41.8 | Dose-dependent effect | 36.45 µM
CCCCCCCCCCCCCCCCOP(=O)([O-])OCC[N+](C)(C)C [MILTEFOSINE] | 10.4 µM | 6.4 µM | 44.8 µM | 40.7 µM | 4.3 | 6.34 | Dose-dependent effect | 26.01 µM
C=CCc1ccc(OC)c(OC)c1 [METHYLEUGENOL] | 475 µM | 203 µM | 517 µM | 485 µM | 1.09 | 2.39 | Dose-dependent effect | 10.82 µM
C=CCc1ccc(OC(=O)c2c[nH]c3ccccc23)c(OC)c1 | 60.5 µM | 25.3 µM | 485 µM | 496 µM | 8.11 | 19.7 | Dose-dependent effect | 26.24 µM
C=CCc1ccc(OC(=O)CCCC)c(OC)c1 | 106 µM | 65.6 µM | 368 µM | 353 µM | 3.49 | 5.41 | Dose-dependent effect | 24.39 µM
C=CCc1ccc(OC(=O)CC)c(OC)c1 | 146 µM | 112 µM | 448 µM | 429 µM | 3.1 | 3.86 | Dose-dependent effect | 12.19 µM
C=CCc1ccc(OC(=O)c2cccc([N+](=O)[O-])c2)c(OC)c1 | 76.9 µM | 26.2 µM | 255 µM | 218 µM | 3.33 | 8.36 | Dose-dependent effect | 24.58 µM
C=CCc1ccc(OC(=O)CCCCCCCCCCC)c(OC)c1 | 56.2 µM | 19.6 µM | 529 µM | 498 µM | 9.36 | 25.9 | Dose-dependent effect | 34.28 µM
C=CCc1ccc(OCCC)c(OC)c1 [PROPYLEUGENOL] | 133 µM | 156 µM | 110 µM | 111 µM | 0.83 | 0.71 | Dose-dependent effect | 10.64 µM
C=CCOc1ccc(CC=C)cc1OC [ALLYLEUGENOL] | 238 µM | 120 µM | 385 µM | 353 µM | 1.64 | 2.95 | Dose-dependent effect | 13.86 µM
C=CCc1ccc(OCCCCCCCCC)c(OC)c1 | 81.9 µM | 51.8 µM | 332 µM | 326 µM | 4.27 | 6.47 | Dose-dependent effect | 25.19 µM
C=CCc1ccc(OC(=O)[C@@H]2CCCN2)c(OC)c1 | 97.4 µM | 72.9 µM | 278 µM | 326 µM | 2.87 | 4.49 | Dose-dependent effect | 21.87 µM
C=CCc1ccc(OCCCCCCCC)c(OC)c1 | 62.3 µM | 48.7 µM | 357 µM | 393 µM | 5.85 | 8.3 | Dose-dependent effect | 26.01 µM
C[C@@H]1[C@H](O)[C@@H](C)/C=C/C=C/C=C/C=C/C=C/C=C/C=C/[C@H](O[C@@H]2O[C@H](C)[C@@H](O)[C@H](N)[C@@H]2O)C[C@@H]2O[C@](O)(C[C@@H](O)C[C@@H](O)[C@H](O)CC[C@@H](O)C[C@@H](O)CC(=O)O[C@H]1C)C[C@H](O)[C@H]2C(=O)O [AMPHOTERICIN B] | 1.36 µM | 1.18 µM | 10 µM | 9.18 µM | 7.4 | 7.78 | Dose-dependent effect | 

SMILES | IC50 (Leishmania donovani [1]) | EC50 (Leishmania donovani [2]) | IC50 (RAW264.7) | EC50 (Peritoneal macrophage [3]) | selectivity ratio [4] | selectivity ratio [5] | Activity (Peritoneal macrophage [6]) | Activity (Peritoneal macrophage [6]; record 2)
C=CCc1ccc(OCCCCCCCCCCCC)c(OC)c1 | 52.5 µM | 26 µM | 299 µM | 292 µM | 5.76 | 11.4 | Dose-dependent effect | 28.12 µM
C=CCc1ccc(OC(=O)c2ccc([N+](=O)[O-])cc2)c(OC)c1 | 82.4 µM | 26.7 µM | 261 µM | 244 µM | 3.18 | 9.21 | Dose-dependent effect | 27.28 µM
C=CCc1ccc(OC(C)=O)c(OC)c1 [EUGENYL ACETATE] | 166 µM | 99.1 µM | 356 µM | 352 µM | 2.15 | 3.59 | Dose-dependent effect | 12.44 µM
C=CCc1ccc(OC(=O)CCCCCC)c(OC)c1 | 103 µM | 59.6 µM | 512 µM | 491 µM | 4.95 | 8.3 | Dose-dependent effect | 25.84 µM
C=CCc1ccc(OC(=O)c2ccccc2Cl)c(OC)c1 | 64.5 µM | 57.9 µM | 251 µM | 275 µM | 3.91 | 4.79 | Dose-dependent effect | 14.58 µM
C=CCc1ccc(OCCCCCC)c(OC)c1 | 80.3 µM | 36.4 µM | 292 µM | 272 µM | 3.63 | 7.6 | Dose-dependent effect | 20.81 µM
C=CCc1ccc(OCCCCCCCCCCCCCCCC)c(OC)c1 | 58.1 µM | 17.1 µM | 292 µM | 251 µM | 5.02 | 14.5 | Dose-dependent effect | 29.1 µM
C=CCc1ccc(OC(=O)CCCCCCCCC)c(OC)c1 | 67.5 µM | 33.1 µM | 373 µM | 404 µM | 5.66 | 12.4 | Dose-dependent effect | 27.31 µM
C=CCc1ccc(OCCCC)c(OC)c1 [N-BUTYLEUGENOL] | 309 µM | 147 µM | 329 µM | 345 µM | 1.07 | 2.35 | Dose-dependent effect | 14.23 µM
C=CCc1ccc(OC(=O)C2CCNCC2)c(OC)c1 | 89 µM | 66.3 µM | 261 µM | 307 µM | 2.96 | 4.66 | Dose-dependent effect | 21.55 µM
C=CCc1ccc(OCCCCCCC)c(OC)c1 | 61.3 µM | 41.1 µM | 198 µM | 197 µM | 3.28 | 4.88 | Dose-dependent effect | 22.43 µM
C=CCc1ccc(OC(=O)CCCCCCCC)c(OC)c1 | 93.6 µM | 52.9 µM | 317 µM | 343 µM | 3.37 | 6.52 | Dose-dependent effect | 27.14 µM
C=CCc1ccc(OC(=O)CCCCCCCCCCCCCCC)c(OC)c1 | 43.3 µM | 8.54 µM | 374 µM | 357 µM | 8.56 | 42.2 | Dose-dependent effect | 39.42 µM
C=CCc1ccc(OCCCCCCCCCC)c(OC)c1 | 49.9 µM | 29 µM | 412 µM | 272 µM | 8.61 | 9.67 | Dose-dependent effect | 26.17 µM
C=CCc1ccc(OC(=O)[C@@H](N)Cc2c[nH]c3ccccc23)c(OC)c1 | 53 µM | 21.6 µM | 451 µM | 471 µM | 8.6 | 22.1 | Dose-dependent effect | 28.78 µM
C=CCc1ccc(OC(=O)CCC)c(OC)c1 | 64.5 µM | 72.1 µM | 233 µM | 191 µM | 3.61 | 2.71 | Dose-dependent effect | 23.08 µM
